Measurements as given in patent US11028079B2 (ConverGene LLC, priority 2015, dated 2021).

Target: T1, BRD4 bromodomains (Homo sapiens, UniProt O60885)
T1 construct: fused on or other part: T7 phage capsid protein (phage-display fusion; the phage DNA is read out by qPCR)
Assay: BROMOscan bromodomain competition binding assay (DiscoveRx)
Conditions: Kd from 11 compound concentrations ranging from 0 to 10 μM, read-out: BROMOscan Relative Activity
Method: Bromodomain assays were conducted to measure interactions between certain compounds and bromodomains.
The assays were conducted according to BROMOscan protocol from Discover Rx. Briefly, BRD4 bromodomains expressed as a fusion capsid protein of T7 phage were bound to acetylated peptide ligand on a solid phase and competition bindings were performed. T7 phage strains displaying bromodomains were grown in parallel in 24-well blocks in an E. coli host derived from the BL21 strain. E. coli were grown to log-phase and infected with T7 phage from a frozen stock (multiplicity of infection=0.4) and incubated with shaking at 32° C. until lysis (90-150 minutes). The lysates were centrifuged (5,000×g) and filtered (0.2 μm) to remove cell debris. […] The liganded beads were blocked with excess biotin and washed with blocking buffer (SeaBlock (Pierce), 1% BSA, 0.05% Tween 20, 1 mM DTT) to remove unbound ligand and to reduce non-specific phage binding. […] Test compounds were prepared as 1000× stocks in 100% DMSO and subsequently diluted 1:10 in monoethylene glycol (MEG) to create stocks at 100× the screening concentration (resulting stock solution is 10% DMSO/90% MEG). The compounds were then diluted directly into the assays such that the final concentration of DMSO and MEG were 0.1% and 0.9%, respectively. All reactions were performed in polystyrene 96-well plates in a final volume of 0.135 ml. […] The bromodomain concentration in the eluates was measured by qPCR. Data was collected at 11 compound concentrations ranging from 0 to 10 μM. Kd values were then derived from a standard dose-response curve generated with Hill equation (Hill Slope was set to ˜1) and a non-linear least square fit with the Levenberg-Marquardt algorithm. Response=Background+Signal−Background/1+(Kd Hill Slope/Dose Hill Slope)

| Compound | Kd [nM] |
| --- | --- |
| Cc1noc(C)c1-c1ccc2nc(N3CCC(CCN(C)C)CC3)nc(NCc3cccc(Cl)c3)c2c1 [Example 34, N-(3-chlorobenzyl)-2-(4-(2-(dimethylamino)ethyl)piperidin-1-yl)-6-(3,5-dimethylisoxazol-4-yl)quinazolin-4-amine] | < 500 |
| Cc1noc(C)c1-c1ccc2nc(N3CCN(C(=O)c4cccnc4)CC3)nc(NCc3cccc(Cl)c3)c2c1 [Example 35, (4-(4-((3-chlorobenzyl)amino)-6-(3,5-dimethylisoxazol-4-yl)quinazolin-2-yl)piperazin-1-yl)(pyridin-3-yl)methanone] | < 500 |
| Cc1noc(C)c1-c1ccc2nc(N3CCN(C(=O)CO)CC3)nc(NCc3cccc(Cl)c3)c2c1 [Example 36, 1-(4-(4-((3-chlorobenzyl)amino)-6-(3,5-dimethylisoxazol-4-yl)quinazolin-2-yl)piperazin-1-yl)-2-hydroxyethanone] | < 500 |
| Cc1noc(C)c1-c1ccc2nc(N3CCN(C(=O)CN(C)C)CC3)nc(NCc3cccc(Cl)c3)c2c1 [Example 37, 1-(4-(4-((3-chlorobenzyl)amino)-6-(3,5-dimethylisoxazol-4-yl)quinazolin-2-yl)piperazin-1-yl)-2-(dimethylamino)ethanone] | < 500 |
| Cc1noc(C)c1-c1ccc2c(NCc3cccc(Cl)c3)nc(Cl)nc2c1 [Example 38, 2-chloro-N-(3-chlorobenzyl)-7-(3,5-dimethylisoxazol-4-yl)quinazolin-4-amine] | 500 to 5000 |
| Cc1noc(C)c1-c1ccc2c(NCc3cccc(Cl)c3)nc(N3CCN(CCN(C)C)CC3)nc2c1 [Example 39, N-(3-chlorobenzyl)-2-(4-(2-(dimethylamino)ethyl)piperazin-1-yl)-7-(3,5-dimethylisoxazol-4-yl)quinazolin-4-amine] | 500 to 5000 |
| Cc1noc(C)c1-c1ccc2c(NCc3cccc(Cl)c3)nc(N3CCN(CCO)CC3)nc2c1 [Example 40, 2-(4-(4-((3-chlorobenzyl)amino)-7-(3,5-dimethylisoxazol-4-yl)quinazolin-2-yl)piperazin-1-yl)ethanol] | 500 to 5000 |
| Cc1noc(C)c1-c1ccc2nc(N3CCC(CN(C)C)CC3)nc(NCc3cccc(Cl)c3)c2c1 [Example 41, N-(3-chlorobenzyl)-2-(4-((dimethylamino)methyl)piperidin-1-yl)-6-(3,5-dimethylisoxazol-4-yl)quinazolin-4-amine] | < 500 |
| Cc1noc(C)c1-c1ccc2nc(-n3cc(CCO)cn3)nc(NCc3cccc(Cl)c3)c2c1 [Example 42, 2-(1-(4-((3-chlorobenzyl)amino)-6-(3,5-dimethylisoxazol-4-yl)quinazolin-2-yl)-1H-pyrazol-4-yl)ethanol] | < 500 |
| Cc1noc(C)c1-c1ccc2cc(N3CCN(CCN(C)C)CC3)nc(NCc3cccc(Cl)c3)c2c1 [Example 43, N-(3-chlorobenzyl)-3-(4-(2-(dimethylamino)ethyl)piperazin-1-yl)-7-(3,5-dimethylisoxazol-4-yl)isoquinolin-1-amine] | 500 to 5000 |
| Cc1noc(C)c1-c1ccc2cc(N3CCN(CCO)CC3)nc(NCc3cccc(Cl)c3)c2c1 [Example 44, 2-(4-(1-((3-chlorobenzyl)amino)-7-(3,5-dimethylisoxazol-4-yl)isoquinolin-3-yl)piperazin-1-yl)ethanol] | 500 to 5000 |
| Cc1noc(C)c1-c1ccc2nc(N3CCN(CC(C)O)CC3)nc(NCc3cccc(Cl)c3)c2c1 (stereo not drawn) [Example 45, 1-(4-(4-((3-chlorobenzyl)amino)-6-(3,5-dimethylisoxazol-4-yl)quinazolin-2-yl)piperazin-1-yl)propan-2-ol] | < 500 |
| Cc1noc(C)c1-c1ccc2nc(N3CCN(C[C@@H](C)O)CC3)nc(NCc3cccc(Cl)c3)c2c1 [Example 46, (R)-1-(4-(4-((3-chlorobenzyl)amino)-6-(3,5-dimethylisoxazol-4-yl)quinazolin-2-yl)piperazin-1-yl)propan-2-ol] | < 500 |
| Cc1noc(C)c1-c1ccc2nc(N3CCN(C[C@H](C)O)CC3)nc(NCc3cccc(Cl)c3)c2c1 [Example 47, (S)-1-(4-(4-((3-chlorobenzyl)amino)-6-(3,5-dimethylisoxazol-4-yl)quinazolin-2-yl)piperazin-1-yl)propan-2-ol] | < 500 |
| Cc1noc(C)c1-c1ccc2nc(-c3cnn(CCO)c3)nc(NCc3cccc(Cl)c3)c2c1 [Example 48, 2-(4-(4-((3-chlorobenzyl)amino)-6-(3,5-dimethylisoxazol-4-yl)quinazolin-2-yl)-1H-pyrazol-1-yl)ethanol] | < 500 |
| Cc1noc(C)c1-c1ccc2nc(-c3cnn(C)c3)nc(NCc3cccc(Cl)c3)c2c1 [Example 49, N-(3-chlorobenzyl)-6-(3,5-dimethylisoxazol-4-yl)-2-(1-methyl-1H-pyrazol-4-yl)quinazolin-4-amine] | < 500 |
| Cc1noc(C)c1-c1ccc2nc(-c3cnn(CC(N)=O)c3)nc(NCc3cccc(Cl)c3)c2c1 [Example 50, 2-(4-(4-((3-chlorobenzyl)amino)-6-(3,5-dimethylisoxazol-4-yl)quinazolin-2-yl)-1H-pyrazol-1-yl)acetamide] | < 500 |
| Cc1noc(C)c1-c1ccc2c(NCc3cccc(Cl)c3)nc(-c3cnn(CC(N)=O)c3)nc2c1 [Example 51, 2-(4-(4-((3-chlorobenzyl)amino)-7-(3,5-dimethylisoxazol-4-yl)quinazolin-2-yl)-1H-pyrazol-1-yl)acetamide] | 500 to 5000 |
| Cc1noc(C)c1-c1ccc2nc(N3CCN(CC(=O)N(C)C)CC3)nc(NCc3cccc(Cl)c3)c2c1 [Example 52, 2-(4-(4-((3-chlorobenzyl)amino)-6-(3,5-dimethylisoxazol-4-yl)quinazolin-2-yl)piperazin-1-yl)-N,N-dimethylacetamide] | < 500 |
| CNC(=O)CN1CCN(c2nc(NCc3cccc(Cl)c3)c3cc(-c4c(C)noc4C)ccc3n2)CC1 [Example 53, 2-(4-(4-((3-chlorobenzyl)amino)-6-(3,5-dimethylisoxazol-4-yl)quinazolin-2-yl)piperazin-1-yl)-N-methylacetamide] | < 500 |
| Cc1noc(C)c1-c1ccc2nc(N3CCN(CC(N)=O)CC3)nc(NCc3cccc(Cl)c3)c2c1 [Example 54, 2-(4-(4-((3-chlorobenzyl)amino)-6-(3,5-dimethylisoxazol-4-yl)quinazolin-2-yl)piperazin-1-yl)acetamide] | < 500 |
| Cc1noc(C)c1-c1ccc2nc(N3CCN(C(=O)CN)CC3)nc(NCc3cccc(Cl)c3)c2c1 [Example 55, 2-amino-1-(4-(4-((3-chlorobenzyl)amino)-6-(3,5-dimethylisoxazol-4-yl)quinazolin-2-yl)piperazin-1-yl)ethanone] | < 500 |
| Cc1noc(C)c1-c1ccc2nc(-c3cnn(CC(C)(C)O)c3)nc(NCc3cccc(Cl)c3)c2c1 [Example 56, 1-(4-(4-((3-chlorobenzyl)amino)-6-(3,5-dimethylisoxazol-4-yl)quinazolin-2-yl)-1H-pyrazol-1-yl)-2-methylpropan-2-ol] | < 500 |
| Cc1noc(C)c1-c1ccc2nc(-c3cnn(CCC#N)c3)nc(NCc3cccc(Cl)c3)c2c1 [Example 57, 3-(4-(4-((3-chlorobenzyl)amino)-6-(3,5-dimethylisoxazol-4-yl)quinazolin-2-yl)-1H-pyrazol-1-yl)propanenitrile] | < 500 |
| COCCn1cc(-c2nc(NCc3cccc(Cl)c3)c3cc(-c4c(C)noc4C)ccc3n2)cn1 [Example 58, N-(3-chlorobenzyl)-6-(3,5-dimethylisoxazol-4-yl)-2-(1-(2-methoxyethyl)-1H-pyrazol-4-yl)quinazolin-4-amine] | < 500 |
| Cc1noc(C)c1-c1ccc2nc(-c3cnn(CC#N)c3)nc(NCc3cccc(Cl)c3)c2c1 [Example 59, 2-(4-(4-((3-chlorobenzyl)amino)-6-(3,5-dimethylisoxazol-4-yl)quinazolin-2-yl)-1H-pyrazol-1-yl)acetonitrile] | < 500 |
| Cc1noc(C)c1-c1ccc2nc(-c3cnn(CCN(C)C)c3)nc(NCc3cccc(Cl)c3)c2c1 [Example 60, N-(3-chlorobenzyl)-2-(1-(2-(dimethylamino)ethyl)-1H-pyrazol-4-yl)-6-(3,5-dimethylisoxazol-4-yl)quinazolin-4-amine] | < 500 |
| Cc1noc(C)c1-c1ccc2nc(-c3cnn(C4COC4)c3)nc(NCc3cccc(Cl)c3)c2c1 [Example 61, N-(3-chlorobenzyl)-6-(3,5-dimethylisoxazol-4-yl)-2-(1-(oxetan-3-yl)-1H-pyrazol-4-yl)quinazolin-4-amine] | < 500 |
| Cc1noc(C)c1-c1ccc2nc(-c3cnn(C(C)(C)CO)c3)nc(NCc3cccc(Cl)c3)c2c1 [Example 62, 2-(4-(4-((3-chlorobenzyl)amino)-6-(3,5-dimethylisoxazol-4-yl)quinazolin-2-yl)-1H-pyrazol-1-yl)-2-methylpropan-1-ol] | < 500 |
| Cc1noc(C)c1-c1ccc2nc(-c3ccc(CO)nc3)nc(NCc3cccc(Cl)c3)c2c1 [Example 63, (5-(4-((3-chlorobenzyl)amino)-6-(3,5-dimethylisoxazol-4-yl)quinazolin-2-yl)pyridin-2-yl)methanol] | < 500 |
